Data: patent US20130158024A1, “TRICYCLIC NECROSTATIN COMPOUNDS” (priority 2005, published 2013)
“Also recorded” adds a separate entry of the source.

Columns and labels:
[1] = tested on: FADD deficient Jurkat cells
U937 cells = test: Oxidative stress (menadione) induced death of U937 cells, ATP assay; type: cell-based, human; conditions: 250 μM menadione, 24 hours
Procedure: Viability of TNFα/zVAD/DMSO or manadione/DMSO blank treated cells is also shown (- - -). Viability was determined using ATP-Lite-M assay (Packard). Numbers represent percentages of live cells. The values were normalized relative to the zVAD or DMSO treated controls, which were set as 100% viability.
In this and subsequent panels, cell viability was determined via ATP assay. Numbers represent viability normalized to that of the DMSO-treated cells in the absence of TNFα and menadione. Throughout, error bars represent standard deviations. […] Representative images are shown. […] Protein lysates were subjected to western blotting with antibodies to LC3 and to tubulin. The ratio of LC3-II to tubulin signals was calculated (“Ratio”) and normalized to the value in the control sample. […] Alternatively, cells were treated with 2 μM rapamycin. […] Numbers represent viability normalized to that of the compound-treated cells in the absence of TNFα. In FIG. 28H, expression of beclin-1 (“Bec”) and tubulin (“Tub”) in the stable populations of cells in FIG. 28G was analyzed by western blotting.

LC3-II = LC3-II induction (autophagy marker) in cultured cells, western blotting; type: cell-based
Text: FIG. 11 is a set of gels showing the detection of cleaved LC3 in CICD of cultured cells and in ischemic brain injury. […] Equal amounts of cellular proteins were subjected to SDS-PAGE and western blotting with anti-LC3 and tubulin antibodies. Arrows point to the LC3II. […] Isoflurane-anesthetized SV-129 mice were subjected to two hours transient middle cerebral artery (MCA) occlusion by the intraluminal filament techniques. Ischemic and contralateral areas of the brain were collected at indicated times following MCA, lysed in RIPA buffer and equal amount of total protein were subjected to western blotting using anti-LC3 and tubulin antibodies. FIG. 11C is similar to FIG. 11B, except that mice were injected with 2 μL of 4 mM 7-Cl-Nec-1 icy at four and six hours, and brains were collected at eight hours after occlusion.
In this and subsequent panels, cell viability was determined via ATP assay. Numbers represent viability normalized to that of the DMSO-treated cells in the absence of TNFα and menadione. Throughout, error bars represent standard deviations. […] Representative images are shown. […] The ratio of LC3-II to tubulin signals was calculated (“Ratio”) and normalized to the value in the control sample. […] In FIG. 28H, expression of beclin-1 (“Bec”) and tubulin (“Tub”) in the stable populations of cells in FIG. 28G was analyzed by western blotting.

healthy cells = test: Effect of compound alone on physiology of healthy cells (ATP, morphology, cell cycle, mRNA, ROS); type: cell-based
Procedure: Results of the forward and side scatter FACS analysis are shown. In addition, percentage of PI negative viable cells (±SD value) was determined in each sample. […] Numbers of PI negative viable cells (±SD value) in each sample are shown. […] FADD-deficient Jurkat cells were treated as described in FIG. 31A and cell cycle profiles were analyzed by PI DNA content FACS analysis. […] Cell viability was determined using ATP assay. Numbers represent viability normalized to that of the corresponding DMSO-treated cells. Error bars indicate standard deviation values. […] Cells were fixed, embedded and analyzed using electron microscopy. Representative images are shown. […] Cells were stained with dyhydroethydium (Molecular Probes) and analyzed by FACS. Percentages (±SD value) of cells with increased ROS levels are shown. […] Red dots are internal reference controls.
Cells were fixed and stained with anti-giantin (Golgi, green)/anti-KDEL (ER, red) antibodies (FIG. 32A), anti-β-tubulin (tubulin, green)/TO-PRO-3 dye (nuclei, blue)/phalloidin-TRITC (actin, red) (FIG. 32B) and anti-cytochrome c (mitochondria, red)/TO-PRO-3 (nuclei, blue) (FIG. 32C). […]
After the appropriate treatment, we washed Jurkat cells once, resuspended them in PBS, and fixed the cells by adding four volumes of ice cold 100% ethanol. […] We analyzed the data using ModFit software (Verity Software House).

[2] = tested on: Primary mouse CD4+ and CD8+ T cells; test: Activation-induced cell death (AICD) of primary CD4+ and CD8+ T cells; type: cell-based
Procedure: Cell viability was assessed using Sytox Green (Molecular Probes) (CD8) or propidium iodide exclusion (CD4) assays in FIG. 17A or ATP assay in FIG. 17B. Numbers represent the percentages of live cells normalized to the corresponding compound treated controls lacking αCD3.

BALB/c 3T3 cells = test: CICD of BALB/c 3T3 cells induced by TNFα/zVAD.fmk; type: cell-based, mouse
[3] = tested on: RIP kinase-induced necroptosis in FADD-deficient Jurkat cells; test: Necroptosis induced by dimerized RIP kinase in FADD-deficient Jurkat cells, FACS; type: cell-based, human; conditions: dimerizer AP1510, zVAD.fmk, 48 hours
Procedure: Percentage of PI-negative, GFP-positive cells (“Viability, %”) was determined by FACS. Numbers represent viability normalized to that of the compound-treated cells in the absence of dimerizer. Error bars represent standard deviations.

Substance: methylthiohydantoin-tryptophane [Nec-1]
- non-specific cytotoxicity, in words ([1]; 24 hours, ATP assay): does not induce non-specific cytotoxicity in FADD-deficient Jurkat cells
- LD50 ([1]; compound in the absence of TNFα): 374 µM
- protection from menadione induced cell death, in words (U937 cells): did not block the “classic” oxidative stress-induced necrosis caused by menadione
- LC3-II induction caused by rapamycin, in words (LC3-II; BALB/c 3T3 cells, 2 μM rapamycin): had no effect on the LC3-II induction caused by rapamycin
- necroptotic LC3-II induction in cells, in words (LC3-II; necroptotic stimuli (TNFα, TNFα-zVAD.fmk, FasL-zVAD.fmk)): the appearance of LC3II was efficiently inhibited by Nec-1; also recorded: efficiently blocked the necroptotic LC3-II induction
- general effect in healthy cells, in words (healthy cells): does not significantly affect gene expression in Jurkat cells; also recorded: had no general effect in healthy cells
- effect on AICD together with zVAD.fmk, in words ([2]; 100 μM zVAD.fmk and 30 μM Nec-1, 48 hours): inhibition of AICD by Nec-1; also recorded: together efficiently abrogated cell death
- effect on AICD, compound alone, in words ([2]; re-activated CD4+ cells): displayed very little effect on the viability of re-activated T cells in the absence of zVAD.fmk
- inhibition of CICD in 3T3 cells, in words (BALB/c 3T3 cells): inhibited all published examples of necrotic cell death induced by DR activation in the presence of caspase inhibitors
- inhibition of RIP kinase-induced necroptosis, in words [3]: inhibits RIP kinase-induced necroptosis; also recorded: inhibited by Nec-1
